Laboratory results reported in patent publication EP0456792B1, “IMPROVED SYSTEM FOR THE TRANSDERMAL APPLICATION OF PHARMACOLOGICALLY ACTIVE COMPOUNDS AT CONTROLLED pH” (Boehringer Ingelheim International GmbH, priority 1989, dated 1991).
Several values for one entry are separate records, joined by “and”; a condition that tells them apart may be missing. Equal values may be shown once.

How the values were obtained:
[1] = Flux rate of Clenbuterol through the skin as a function of the skin surface pH (Fig. 9); format: in vitro ADME, Mensch
Excerpt: Überraschenderweise wurde nun festgestellt, daß bei einer transdermalen Applikation von Clenbuterol die Fluxrate für den Wirkstoff entscheidend verbessert werden kann, wenn der pH-Wert der Hautoberfläche auf einen Wert konstant zwischen 6,0 und 8,5 gehalten wird.
Die Fluxrate eines Wirkstoffes durch die Haut ist definiert als Menge des Wirkstoffes pro Hautoberfläche und pro Zeiteinheit und wird üblicherweise in [µg/cm^2 . h] angegeben. In dem oben angegebenen pH-Bereich erreicht die Fluxrate für Clenbuterol ihr Maximum, während bei höheren und niederen pH-Werten die Fluxrate stark abnimmt.
Der pH-Wert der Hautoberfläche ist beim Menschen individuell und temporär verschieden. Ein als Standard angenommener pH-Wert von […] bis 6,0 schwankt im Individualfall zwischen pH 4,5 und 8,0 und hängt von vielen unterschiedlichen Faktoren ab. Schwankungen des pH-Wertes können daneben zum einen durch das Pflaster selbst und zum anderen durch den Wirkstoff hervorgerufen werden. Wie aus der Abb. I ersichtlich ist, nimmt die Fluxrate von Clenbuterol außerhalb des angegebenen pH-Bereichs drastisch ab, so daß eine ausreichende Permeabilität der Haut für Clenbuterol nicht mehr gewährleistet ist.
In Fig. 9 ist die Permeabilität P von Clenbuterol durch die menschliche Haut aufgetragen (Funktion A); P ist angegeben in [cm/sec]. […]

[2] = Permeability of pH-modified Clenbuterol CPA through human skin, Franz cell; format: in vitro ADME, Mensch; settings: Zelle 1-3 are replicates
Description: Permeabilität von pH-Wort modifiziertem Clenbuterol CPA durch Humanhaut:
Zusammensetzung der CPA's:
Als Freigabeapparatur wurde eine Franz-Zelle verwendet. Dies ist eine übliche Methode, um die Abgabe von Arzneistoffen aus pharmazeutischen Formulierungen zu testen. Proben wurden nach 24 h bzw. 48h entnommen und der Gehalt an Clenbuterol bestimmt.

[3] = CPA pH-Wert 3.5 (5 % Clenbuterol, 5 % Zitronensäure, 90 % Eudragit E 30 D)
[4] = CPA pH-Wert 10.0 (5 % Clenbuterol, 5 % Na2CO3, 90 % Eudragit E 30 D)

## CC(C)(C)NCC(O)c1cc(Cl)c(N)c(Cl)c1 (stereo not drawn) [Clenbuterol]
[1]; at pH values higher and lower than the range 6,0 to 8,5
  Fluxrate: stark abnimmt
[1]; skin surface pH between 6,0 and 8,5
  Fluxrate: Maximum
[2]; [3]
  Clenbuterol Diffusion nach 24 h: 3.48 µg/cm^2 and 0.65 µg/cm^2 and 2.64 µg/cm^2
  Clenbuterol Diffusion nach 48 h: 5.52 µg/cm^2 and 1.69 µg/cm^2 and 6.04 µg/cm^2
[2]; [4]
  Clenbuterol Diffusion nach 24 h: 7.8 µg/cm^2 and 11.44 µg/cm^2 and 9.84 µg/cm^2
  Clenbuterol Diffusion nach 48 h: 21.7 µg/cm^2 and 27.3 µg/cm^2 and 24.2 µg/cm^2
